# From US5747456A, “Continuous low-dose administration of parathyroid hormone or its agonist” (Beth Israel Deaconess Medical Center, priority 1996, dated 1998)
# Experiments:
# osteoblast activity = conditions: intravenous infusion 0.55 U/kg/hr continuously for 24 hours, cited from earlier work
# bone growth = test: Continuous infusion of hPTH1-34 in post-menopausal women with osteoporosis (Example 5); format: in vivo, human; conditions: continuous infusion 25 to 400 units/24 hrs by infusion pump, twelve months
# Description: The anabolic efficacy of the PTH/PTHrP agonists are tested in humans (Review in Dempster D. W., et al., Endocrine Rev., 1993, 14, 690-709). To determine if continuous administration of hPTH1-34 or its agonist is effective in promoting bone growth in humans, 30 post-menopausal women with established osteoporosis based on bone-density measurements are selected. A double-blind, placebo-controlled, randomized experiment is conducted where two groups of 15 women each are either placed on placebo treatment or continuous infusion of a defined dose of hPTH1-34 (25 units to 400 units/24 hrs) using an infusion pump.
# The patients prior to the study are subject to the following: complete health and physical examination, evaluation of the nutritional status (particularly of calcium intake and serum calcium), full analysis of biomarkers for bone-turnover (Riis, B. J., Amer. J. Med. 1993, 95 [Suppl 5A], 17s-21s; Delmas, P. D., Amer. J. Med., […], 91 [Suppl 5B], 59s-63s), radiology, bone mass measurements of vertebral and axial sites (Gerant, H. K., et al., Amer. J. Med., 1991, 91 [Suppl 5B], 49s-53s; Wasnich, R. D., Amer J Med, 1991, 91 [Suppl 5B], 54s-58s) and bone biopsy, to establish the baseline parameters for each individual. […]
substance,measurement,setting,value
hPTH1-34: synthetic amino-terminal fragment of PTH1-84 (human parathyroid hormone),blood levels of ionized calcium,osteoblast activity; humans,increase
same,serum levels of collagen type I,"osteoblast activity; within 16 hours of infusion, six osteoporotic and two normal subjects",decreased
same,bone mass measurements and bone biopsy,bone growth,clear indication of bone growth
